Literature values as cited in patent US20090298708A1, “2'-DEOXY-2'-FLUORO-BETA-D-ARABINONUCLEOSIDE 5'-TRIPHOSPHATES AND THEIR USE IN ENZYMATIC NUCLEIC ACID SYNTHESIS” (priority 2006, published 2009).

Biological target: T1, DNA pol-γ (Homo sapiens, UniProt P54098)
T1 sequence (P54098 1-1239): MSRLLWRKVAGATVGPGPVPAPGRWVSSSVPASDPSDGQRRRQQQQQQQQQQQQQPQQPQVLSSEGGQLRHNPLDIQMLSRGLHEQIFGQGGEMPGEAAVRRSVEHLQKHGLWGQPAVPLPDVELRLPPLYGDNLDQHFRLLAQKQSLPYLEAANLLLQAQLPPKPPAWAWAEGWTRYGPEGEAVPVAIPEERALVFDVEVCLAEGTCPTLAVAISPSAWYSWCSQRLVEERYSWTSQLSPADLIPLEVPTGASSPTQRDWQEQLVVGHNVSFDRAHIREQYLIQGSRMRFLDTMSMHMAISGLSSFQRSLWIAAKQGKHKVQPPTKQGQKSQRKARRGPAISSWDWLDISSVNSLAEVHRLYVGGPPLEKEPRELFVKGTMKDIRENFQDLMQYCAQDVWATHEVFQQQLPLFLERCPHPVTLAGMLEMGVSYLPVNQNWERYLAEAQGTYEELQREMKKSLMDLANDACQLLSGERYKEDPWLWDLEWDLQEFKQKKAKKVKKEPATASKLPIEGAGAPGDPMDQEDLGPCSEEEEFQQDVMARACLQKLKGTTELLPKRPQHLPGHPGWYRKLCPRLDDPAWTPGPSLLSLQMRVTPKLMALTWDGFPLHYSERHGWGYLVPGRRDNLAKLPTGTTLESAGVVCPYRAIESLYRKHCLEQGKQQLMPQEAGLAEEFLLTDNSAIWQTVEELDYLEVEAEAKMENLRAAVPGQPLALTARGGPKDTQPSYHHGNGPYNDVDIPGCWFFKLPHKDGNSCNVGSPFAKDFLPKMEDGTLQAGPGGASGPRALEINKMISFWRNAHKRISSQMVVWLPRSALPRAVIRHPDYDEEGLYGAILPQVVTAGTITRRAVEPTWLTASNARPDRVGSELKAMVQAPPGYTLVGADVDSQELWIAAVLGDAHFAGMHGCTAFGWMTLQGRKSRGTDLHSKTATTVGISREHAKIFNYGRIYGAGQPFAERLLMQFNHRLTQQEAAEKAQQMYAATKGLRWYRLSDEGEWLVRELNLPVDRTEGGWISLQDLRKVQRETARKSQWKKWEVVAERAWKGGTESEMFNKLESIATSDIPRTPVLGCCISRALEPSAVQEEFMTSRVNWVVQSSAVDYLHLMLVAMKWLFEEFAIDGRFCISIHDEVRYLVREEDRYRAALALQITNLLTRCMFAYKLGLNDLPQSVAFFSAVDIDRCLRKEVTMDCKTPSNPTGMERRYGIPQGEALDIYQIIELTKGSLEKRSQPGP
Settings: Lewis W. et al. (1994) Biochemistry, 33, 14620-14624; read-out: inhibition constant (Ki) with DNA pol-γ; cited from earlier work

SMILES: O=c1[nH]c(=O)n(C2OC(COP(=O)(O)OP(=O)(O)OP(=O)(O)O)C(O)C2F)cc1I (stereo not shown) [FIAU 5′-TP]
- Ki: 40 nM
